Assay results reported in patent US6737383B1, “Herbicidal oxadiazolidines” (priority 1999, dated 2004).

What was measured:
duck salad = assay: Test B flood test duck salad; type: in vivo, Heteranthera limosa
How it was run: (§1)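 Read-out is a visual response score from 0 (no effect) to 10 (complete control), assigned by comparison with untreated controls. Treatment was applied at the 2-leaf stage, and plants stayed in the greenhouse for twelve to sixteen days before scoring.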

purple nutsedge = assay: Test B pre/postemergence purple nutsedge; type: in vivo, Cyperus rotundus
How it was run: (§2)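 Herbicidal effect was estimated by eye on a ten-point control scale after plants spent twelve to sixteen days in a greenhouse following soil or foliar treatment. Foliar sprays targeted plants at one to four leaves; all doses were formulated in a non-phytotoxic solvent with surfactant.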

corn = assay: Test B pre/postemergence corn; type: in vivo, Zea mays
How it was run: as §2

soybean = assay: Test B pre/postemergence soybean; type: in vivo, Glycine max
How it was run: as §2

velvetleaf = assay: Test B pre/postemergence velvetleaf; type: in vivo, Abutilon theophrasti
How it was run: as §2

rice = assay: Test B flood test rice; type: in vivo, Oryza sativa
How it was run: as §1

smallflower flatsedge = assay: Test B flood test smallflower flatsedge; type: in vivo, Cyperus difformis
How it was run: as §1

crabgrass = assay: Test B pre/postemergence crabgrass; type: in vivo, Digitaria sanguinalis
How it was run: as §2

wild oat = assay: Test B pre/postemergence wild oat; type: in vivo, Avena fatua
How it was run: as §2

pigweed = assay: Test B pre/postemergence pigweed; type: in vivo, Amaranthus retroflexus
How it was run: as §2

sugar beet = assay: Test B pre/postemergence sugar beet; type: in vivo, Beta vulgaris
How it was run: as §2

morningglory = assay: Test B pre/postemergence morningglory; type: in vivo, Ipomoea hederacea
How it was run: as §2

giant foxtail = assay: Test B pre/postemergence giant foxtail; type: in vivo, Setaria faberii
How it was run: as §2

wheat = assay: Test B pre/postemergence wheat; type: in vivo, Triticum aestivum
How it was run: as §2

rape = assay: Test B pre/postemergence rape; type: in vivo, Brassica napus
How it was run: as §2

cocklebur = assay: Test B pre/postemergence cocklebur; type: in vivo, Xanthium strumarium
How it was run: as §2

[1] = Rate 62 g/ha, flood test species, Pre-emergence, visual evaluation after twelve to sixteen days
[2] = Rate 125 g/ha, under heading Pre-emergence, flood test species, visual evaluation after twelve to sixteen days
[3] = Rate 250 g/ha, Pre-emergence, flood-test species, scale 0 to 10, 0 is no effect, 10 is complete control
[4] = Rate 500 g/ha, Pre-emergence, flood test species, scale 0 to 10 (0 no effect, 10 complete control)
[5] = Postemergence, Rate 250 g/ha, scale 0 to 10, 0 is no effect, 10 is complete control
[6] = Postemergence, Rate 500 g/ha, scale of 0 to 10 where 0 is no effect and 10 is complete control
[7] = Preemergence, Rate 62 g/ha, scale 0 to 10 (0 no effect, 10 complete control)
[8] = Preemergence, Rate 125 g/ha, scale of 0 to 10 where 0 is no effect and 10 is complete control
[9] = Preemergence, Rate 250 g/ha, scale 0 to 10, 0 is no effect, 10 is complete control
[10] = Preemergence, Rate 500 g/ha, scale 0 to 10, 0 is no effect, 10 is complete control
[11] = Rate 62 g/ha, Postemergence, scale of 0 to 10 where 0 is no effect and 10 is complete control
[12] = Postemergence, Rate 125 g/ha, scale 0 to 10, 0 is no effect, 10 is complete control

CC(C)N(C(=O)n1oc(=O)n(CC2CCC2)c1=O)c1ccc(F)cc1 [Compound 403]
2: Plant response rating, Corn (corn; [8]) | Corn plant response rating (corn; [9]) | Soybean plant response rating (soybean; [10]) | Crabgrass plant response rating (crabgrass; [11]) | Redroot pigweed plant response rating (pigweed; [6]) | Morningglory plant response rating (morningglory; [11]) | Rape plant response rating (rape; [11])
10: Plant response rating, Crabgrass (crabgrass; [7]) | Plant response rating, Crabgrass (crabgrass; [8]) | Crabgrass plant response rating (crabgrass; [9]) | Crabgrass plant response rating (crabgrass; [10]) | Morningglory plant response rating (morningglory; [6]) | Plant response rating, Giant foxtail (giant foxtail; [7]) | Plant response rating, Giant foxtail (giant foxtail; [8]) | Giant foxtail plant response rating (giant foxtail; [9]) | Giant foxtail plant response rating (giant foxtail; [10])
6: Corn plant response rating (corn; [10]) | Plant response rating, Soybean (soybean; [5]) | Velvetleaf plant response rating (velvetleaf; [6]) | S. Flatsedge plant response rating (smallflower flatsedge; [4])
3: Velvetleaf plant response rating (velvetleaf; [9]) | Plant response rating, Crabgrass (crabgrass; [12]) | Sugarbeets plant response rating (sugar beet; [6]) | Sugarbeets plant response rating (sugar beet; [9]) | Plant response rating, Giant foxtail (giant foxtail; [12]) | Giant foxtail plant response rating (giant foxtail; [11])
9: Crabgrass plant response rating (crabgrass; [6]) | Redroot pigweed plant response rating (pigweed; [9]) | Redroot pigweed plant response rating (pigweed; [10]) | Plant response rating, Giant foxtail (giant foxtail; [5]) | Giant foxtail plant response rating (giant foxtail; [6])
8: Soybean plant response rating (soybean; [6]) | Plant response rating, Crabgrass (crabgrass; [5]) | Wild oats plant response rating (wild oat; [10]) | Plant response rating, Morningglory (morningglory; [5])
0: Plant response rating, Ducksalad (0 to 10 scale, 0 is no effect, 10 is complete control) (duck salad; [1]) | Ducksalad plant response rating (0 to 10 scale, 0 is no effect, 10 is complete control) (duck salad; [2]) | Ducksalad plant response rating (duck salad; [3]) | Ducksalad plant response rating (duck salad; [4]) | Plant response rating, Nutsedge (purple nutsedge; [5]) | Nutsedge plant response rating (purple nutsedge; [6]) | Plant response rating, Nutsedge (purple nutsedge; [7]) | Plant response rating, Nutsedge (purple nutsedge; [8]) | Nutsedge plant response rating (purple nutsedge; [9]) | Nutsedge plant response rating (purple nutsedge; [10]) | Nutsedge plant response rating (purple nutsedge; [11]) | Plant response rating, Corn (corn; [12]) | Plant response rating, Corn (corn; [5]) | Corn plant response rating (corn; [6]) | Plant response rating, Corn (corn; [7]) | Corn plant response rating (corn; [11]) | Plant response rating, Soybean (soybean; [7]) | Plant response rating, Soybean (soybean; [8]) | Soybean plant response rating (soybean; [9]) | Plant response rating, Velvetleaf (velvetleaf; [5]) | Plant response rating, Velvetleaf (velvetleaf; [7]) | Plant response rating, Velvetleaf (velvetleaf; [8]) | Velvetleaf plant response rating (velvetleaf; [11]) | Plant response rating, Rice (0 to 10 scale, 0 is no effect, 10 is complete control) (rice; [1]) | Rice plant response rating (0 to 10 scale, 0 is no effect, 10 is complete control) (rice; [2]) | Rice plant response rating (rice; [3]) | Rice plant response rating (rice; [4]) | Plant response rating, S. Flatsedge (0 to 10 scale, 0 is no effect, 10 is complete control) (smallflower flatsedge; [1]) | S. Flatsedge plant response rating (0 to 10 scale, 0 is no effect, 10 is complete control) (smallflower flatsedge; [2]) | S. Flatsedge plant response rating (smallflower flatsedge; [3]) | Plant response rating, Wild oats (wild oat; [7]) | Wild oats plant response rating (wild oat; [11]) | Plant response rating, Redroot pigweed (pigweed; [7]) | Redroot pigweed plant response rating (pigweed; [11]) | Plant response rating, Sugarbeets (sugar beet; [5]) | Plant response rating, Sugarbeets (sugar beet; [7]) | Sugarbeets plant response rating (sugar beet; [11]) | Plant response rating, Morningglory (morningglory; [7]) | Plant response rating, Morningglory (morningglory; [8]) | Morningglory plant response rating (morningglory; [9]) | Morningglory plant response rating (morningglory; [10]) | Plant response rating, Wheat (wheat; [7]) | Plant response rating, Wheat (wheat; [8]) | Wheat plant response rating (wheat; [9]) | Wheat plant response rating (wheat; [10]) | Wheat plant response rating (wheat; [11]) | Plant response rating, Rape (rape; [7]) | Plant response rating, Cocklebur (cocklebur; [12]) | Plant response rating, Cocklebur (cocklebur; [5]) | Cocklebur plant response rating (cocklebur; [6]) | Plant response rating, Cocklebur (cocklebur; [7]) | Plant response rating, Cocklebur (cocklebur; [8]) | Cocklebur plant response rating (cocklebur; [9]) | Cocklebur plant response rating (cocklebur; [11])
4: Soybean plant response rating (soybean; [11]) | Plant response rating, Wild oats (wild oat; [8]) | Plant response rating, Redroot pigweed (pigweed; [8]) | Wheat plant response rating (wheat; [6]) | Plant response rating, Rape (rape; [5])
1: Plant response rating, Redroot pigweed (pigweed; [5]) | Plant response rating, Sugarbeets (sugar beet; [8]) | Plant response rating, Rape (rape; [8])
5: Velvetleaf plant response rating (velvetleaf; [10]) | Wild oats plant response rating (wild oat; [6]) | Wild oats plant response rating (wild oat; [9]) | Sugarbeets plant response rating (sugar beet; [10]) | Rape plant response rating (rape; [9])
7: Rape plant response rating (rape; [6]) | Rape plant response rating (rape; [10])
